Data reported in patent US20220363649A1, “ORGANIC COMPOUNDS” (Rutgers, The State University of New Jersey, priority 2018, published 2022).

Tests used:
Sprague-Dawley rats [1] = test: Rat rotarod test (motor incoordination); format: in vivo; conditions: i.p., male Sprague-Dawley rats
Experimental: Groups of 6 pre-selected male (Sprague-Dawley) rats weighing 180±20 g were included to the study motor coordination. Rats were trained on a rod at a continuous accelerating speed from 4 to 30 rpm/min during a time period of 4 minutes for at least 3 times before the study. Rats were randomly assigned to different groups with similar baseline.
Vehicle and test articles were administered by intraperitoneal (i.p.) injection. The rats were placed on the accelerating rotarod at 30, 60, 90 and 120 min post dosing, and the time (seconds) the rat remained on the rotarod was recorded.

Sprague-Dawley rats [2] = test: Paclitaxel-induced mechanical allodynia model in rats; format: in vivo, rat; conditions: i.p., von Frey
Experimental: (§1) Male Sprague-Dawley rats weighing 240+20 grams were employed. Paclitaxel (brand name TAXOL®, 2 mg/kg) is injected intraperitoneally (i.p.) on days 1, 3, 5 and 7 with a total cumulative dose of 8 mg/kg. During the course of the study, the animals were housed individually under constant temperature, humidity and a 12-hour light-dark cycle.
(§2) Test articles, vehicle and gabapentin were administered intraperitoneally on Days 14 or 21.
Mechanical allodynia was assessed by the manual von Frey test and measured prior to Paclitaxel injections (Day 0) and test article administration (Days 13 or 20) and at 0.5 hour after dosing of vehicle or test articles on Days 14 or 21. The animals were randomized to each groups based on pre-dose mechanical allodynia values (Days 13 or 20). The animals were given 20 to 30 minutes to acclimatize prior to testing. The paw was touched with a series of 8 manual von Frey monofilaments with logarithmically incremental stiffness [3.61 (0.4 g), 3.84 (0.6 g), 4.08 (1.0 g), 4.31 (2.0 g), 4.56 (4.0 g), 4.74 (6.0 g), 4.93 (8.0 g), and 5.18 (15.0 g)]. […] Mechanical threshold (50% g threshold) was assessed using the up- and down-method following the procedure described by Chaplan, et al., 1994, J Neurosci Methods 53:55-63.

Sprague-Dawley rats [3] = test: Paclitaxel-induced cold hyperalgesia model in rats; format: in vivo, rat; conditions: i.p.
Experimental: as §1, §2
Cold hyperalgesia was assessed by the […] and measured prior to Paclitaxel injections (Day 0) and test article administration (Days 13 or 20) and at 0.5 hour after dosing of vehicle or test articles on Days 14 or 21. The animals were randomized to each groups based on pre-dose cold hyperalgesia values (Days 13 or 20). Test rat was placed in 2.5 cm depth of a 0-2° C. ice water bath in a Plexiglas arena 32×32 cm×27 cm high. Withdrawal latency of the left paw was recorded and averaged twice for cold hyperalgesia assessment. A 20 sec cut time was employed.

S1R = biological target: T1, S1R (Cavia porcellus, UniProt Q60492); test: S1R radiolabeled binding assay, guinea pig whole brain, [3H]-pentazocine; conditions: guinea pig brain membranes (Compounds 1-9); read-out: S1R Ki
T1 construct: performed using Guinea pig whole brain according to the protocol previously reported; from tissue; host or cells: guinea pig whole brain membrane preparations
Experimental: Following 1 h incubation at 25° C., the binding assay was terminated by addition of cold buffer. The mixture was then filtered through Whatman GF/B filters and washed with cold buffer. Radioactivity was identified using the liquid scintillation counter.
Receptor binding data were analyzed by nonlinear regression of saturation and competition curves using the GraphPad Prism 7.0 software (GraphPad Software, La Jolla, Calif.).
(§3) Radiolabeled binding assays were conducted using two different species.

CD-1 mice = test: Mouse tail flick test, potentiation of morphine analgesia; format: in vivo; conditions: mouse model of acute pain, n=8, i.p.; morphine SC
Experimental: Male young CD-1 mice (at the age of 7-8 weeks) were used for this study. Tail flick latency was determined using a lamp device (design derived from D'Amour & Smith, 1941, J. Pharmacol. Exp. Ther. 72(1):74-79). The behavioral endpoint was defined as a flick of the tail out of the path of the light. The intensity of the light was adjusted to provide a baseline response time of approximately 2-4 seconds. The light beam was focused approximately 4 cm from the tip of the tail. A cut off time of 20 seconds was used to prevent tissue damage. Mice received a single intra-peritoneal (IP) injection of either vehicle (saline) or test substance at appropriate doses followed immediately by a single sub-cutaneous (SC) administration of saline or Morphine at the appropriate dose for each group. Thirty minutes after the SC administration, the animals were gently restrained in a manner which allowed access to the tail and positioned beneath a light beam (D'Amour & Smith, 1941, J Pharmacol Exp Ther 72(1):74-79) with the tail aligned for measurement at approximately 4 cm from tail tip. The lamp device automatically timed each tail flick response once the tail was flicked away from the light beam by a sensor beneath the platform.

Sprague-Dawley rats [4] = test: Rat formalin test; format: in vivo; conditions: 20 and 40 mg/kg, i.p., hind paw licking time
Experimental: One day after the rotarod test, vehicle and test articles were administered intraperitoneally again to groups of 6 Sprague-Dawley male rats weighting 180±20 g, 30 minutes prior to sub-plantar injection of formalin (0.05 ml, 2% solution). The hind paw licking time was recorded during a 0-35 min period at 5-min intervals after formalin challenge as a measure of analgesic activity of the test compound.

Sprague-Dawley rats [5] = test: STZ-induced mechanical allodynia model in diabetic rats; format: in vivo, rat; conditions: i.p., von Frey
Experimental: (§4) Male Sprague-Dawley rats weighing 225-250 grams were employed. Streptozotocin (STZ, 50 mg/kg) freshly dissolved in 0.9% sterile saline was injected intraperitoneally on day 0. Three days later, diabetes was confirmed by existence of blood glucose >350 mg/dL as measured by glucometer. Animal health was monitored biweekly for 14 days, at which point mechanical allodynia and thermal hyperalgesia were measured and confirmed. During the course of the study, the animals were housed individually under constant temperature, humidity and a 12-hour light-dark cycle. The animals were tested prior to study inclusion for mechanical allodynia and thermal hyperalgesia.
(§5) The behavioral assessments include mechanical allodynia and thermal hyperalgesia. Test articles, vehicle and gabapentin were administered intraperitoneally on Days 14 or 21.
Mechanical allodynia was assessed by the manual von Frey test and measured prior to STZ injections (Day 0). The animals were then randomized to each groups based on pre-dose mechanical allodynia values (Day 13 and Day 20). The mechanical allodynia test was performed again at 0.5 and 1.5 hours after vehicle, test article or gabapentin administration on Day 14. […] Mechanical threshold (50% g threshold) was assessed using the up- and down-method following the procedure described by Chaplan, et al., 1994, J Neurosci Methods 53:55-63).

Sprague-Dawley rats [6] = test: STZ-induced thermal hyperalgesia model in diabetic rats; format: in vivo, rat; conditions: i.p.
Experimental: as §4, §5
Thermal hyperalgesia: The animals were tested prior to study inclusion for thermal hyperalgesia on day 13 and Day 20. Thermal hyperalgesia was measured at 1 and 2 hours after dosing of vehicle or test article on Day 14 and Day 21 by using the IITC Model-336G (IITC INC. USA) apparatus. Each rat was placed within a plastic box atop a glass floor for 20 to 30 minutes. A light beam under the floor was aimed at the plantar surface of the left hind paw. The time was measured automatically when the paw was withdrawn away from the thermal stimulus. […]

Sprague Dawley rats [7] = test: Spinal nerve ligation (SNL) Chung model in rats, mechanical allodynia; format: in vivo, rat; conditions: two doses, von Frey
Experimental: (§6) Groups of 6 male Sprague Dawley rats weighing 160-200 grams were used. Prior to surgery and post-operatively, the animals were housed socially under constant temperature, humidity, and a 12-hour light-dark cycle. Following acclimation to the animal colony for 7 days, the rats were tested for mechanical allodynia and thermal hyperalgesia for baseline (pre-dose) values on Day −1. On Day 0, the animals were anesthetized with pentobarbital (50 mg/kg, i.p.). The left paraspinal muscles were separated from the spinous processes (L4-S2) and the L6-S1 facet joint was nipped. The transverse process of L6 was removed to allow for identifying the location of the L5 and L6 spinal nerves. The left L5-L6 spinal nerves were isolated and tightly ligated with 6.0 silk sutures. The rats are allowed to recover for 13 days.
Rats were tested for mechanical allodynia and thermal hyperalgesia following acclimation on Day −1 for baseline (pre-dose) values. Following the recovery period, the rats were tested to verify the mechanical allodynia on Day 13. […]
Mechanical allodynia: The mechanical allodynia is assessed by the manual von Frey test (Chaplan up/down method using von Frey filaments on the plantar surface of the CFA injected paw). […] Mechanical threshold (50% g threshold) is assessed using the up- and down-method following the procedure described by Chaplan (Chaplan et al., 1994, J Neurosci Methods 53:55-63).

Sprague Dawley rats [8] = test: Spinal nerve ligation (SNL) Chung model in rats, thermal hyperalgesia; format: in vivo, rat; conditions: two doses, Hargreaves method
Experimental: as §6
Following a four (4) day wash out “period”, the rats were tested in the thermal hyperalgesia test and randomized to balance treatment groups. On Day 19, the rats were administered vehicle, Compound 68 at two doses, or gabapentin 50 mg/kg, IP. At 15 and 75 minutes post-dose the thermal hyperalgesia is tested again.
Thermal hyperalgesia: Thermal hyperalgesia is measured by the Hargreaves method. […] The time is measured automatically when the paw is withdrawn away from the thermal stimulus. […]

human S2R = biological target: T2, human S2R (Homo sapiens, UniProt Q5BJF2); test: Human S2R radiolabeled binding assay, Jurkat Clone E6-1 cell membranes, [3H] DTG; conditions: human membranes (Compounds 10-76)
T2 construct: performed using Jurkat cell line Clone E6-1 cells with 0.025 μM; endogenous in cells; host or cells: Jurkat Clone E6-1 cell membranes
Experimental: The radiolabeled binding assay of the human S1R and S2R were performed using human jurkat cell membranes according to the protocol previously reported (Ganapathy, et al., 1999, J. Pharmacol. Exp. Ther. 289:251-60).
DTG as radioligand. […] The cells were incubated in RPMI 1640 Medium with 10% FBS, 100 U/ml penicillin and […] streptomycin. After incubation, the cells were suspended in 5 mM potassium phosphate buffer (pH=7.6). The membrane protein concentration was controlled at 5 mg/mL. The collected membrane protein was incubated with ligands in potassium phosphate buffer for 1 hour at room temperature and terminated by adding ice-cold buffer. Then the mixture is filtered with 0.7 μm syringe filter and washed three times. The radioactivity is determined by liquid scintillation spectrometry.
Radiolabeled binding assays were conducted using two different species. Compounds 1-9 were assayed using guinea pig brain membranes for the binding assays. Compounds 10-76 were assayed using human brain membranes for the binding assays.

human S1R = biological target: T3, human S1R (Homo sapiens, UniProt Q99720); test: Human S1R radiolabeled binding assay, human jurkat cell membranes, [3H]-pentazocine; conditions: human membranes (Compounds 10-76)
T3 construct: experimentally determined in human jurkat cell membranes using 15.0 nM; endogenous in cells; host or cells: human Jurkat cell membranes
Experimental: The binding process was terminated by addition of cold buffer. Then, the mixture was filtered and washed with cold buffer. Radioactivity was identified using the TopCount NTX liquid scintillation counter (PerkinElmer, Waltham, Mass.).
as §3

T3 sequence (Q99720 whole entry): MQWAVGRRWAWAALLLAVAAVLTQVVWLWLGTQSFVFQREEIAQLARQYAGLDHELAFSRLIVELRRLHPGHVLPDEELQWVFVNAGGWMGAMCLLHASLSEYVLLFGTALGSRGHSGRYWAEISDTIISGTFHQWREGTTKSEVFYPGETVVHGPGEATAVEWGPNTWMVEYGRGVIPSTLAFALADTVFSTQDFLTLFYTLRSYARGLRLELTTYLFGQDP
T2 sequence (Q5BJF2 whole entry): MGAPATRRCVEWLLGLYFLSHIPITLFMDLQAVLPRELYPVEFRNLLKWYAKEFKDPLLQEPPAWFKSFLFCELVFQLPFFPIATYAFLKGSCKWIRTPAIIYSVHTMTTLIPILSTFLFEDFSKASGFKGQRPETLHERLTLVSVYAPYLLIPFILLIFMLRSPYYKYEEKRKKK
T1 sequence (Q60492 whole entry): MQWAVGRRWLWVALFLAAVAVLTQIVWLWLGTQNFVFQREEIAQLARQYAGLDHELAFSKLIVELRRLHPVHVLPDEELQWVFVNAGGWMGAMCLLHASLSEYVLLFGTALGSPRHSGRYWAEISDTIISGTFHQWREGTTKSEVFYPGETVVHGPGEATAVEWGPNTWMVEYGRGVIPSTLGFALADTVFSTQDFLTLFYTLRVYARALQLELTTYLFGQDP

Compound: Cn1nc(CN2CCCC2)nc1-c1ccc(C(C)(C)C)cc1 [Compound 8, 5-(4-(tert-butyl)phenyl)-1-methyl-3-(pyrrolidin-1-ylmethyl)-1H-1,2,4-triazole]
- motor incoordination effect in rat rotarod test (Sprague-Dawley rats [1]; 20 mg/kg): No motor incoordination effect
- motor incoordination effect in rat rotarod test (Sprague-Dawley rats [1]; 40 mg/kg, t=60 min): very slight and temporary motor incoordination effect
- analgesic activity, Paclitaxel-induced mechanical allodynia (Sprague-Dawley rats [2]): exhibits analgesic activity
- analgesic activity, Paclitaxel-induced cold hyperalgesia (Sprague-Dawley rats [3]): exhibits analgesic activity
- Ki (S1R): 2.28 nM
- potentiation of morphine's analgesia, Tail Flick Test (CD-1 mice): potentiates morphine's analgesia
- analgesic activity in rat formalin test (Sprague-Dawley rats [4]): dose-dependent analgesic activity
- analgesic activity, STZ-induced mechanical allodynia (Sprague-Dawley rats [5]): exhibits analgesic activity
- analgesic activity, STZ-induced thermal hyperalgesia (Sprague-Dawley rats [6]): exhibits analgesic activity

Compound: CC(C)n1nc(CN2CCC3(CC3)C2)nc1-c1ccc(C(C)(C)C)cc1 [Compound 68, 5-((5-(4-(tert-butyl)phenyl)-1-isopropyl-1H-1,2,4-triazol-3-yl)methyl)-5-azaspiro[2.4]heptane]
- analgesic activity, mechanical allodynia in SNL Chung model (Sprague Dawley rats [7]): exhibits analgesic activity
- analgesic activity, thermal hyperalgesia in SNL Chung model (Sprague Dawley rats [8]): exhibits analgesic activity
- Ki (human S2R): 360 nM
- Ki (human S1R): 0.75 nM
